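Growth conditions: 96-well plates. Treatment: test compound, 48 hours, 5 concentrations. Analysis: linear interpolation between bracketing concentrations; unreached endpoints set to highest concentration. GI50 is the concentration that inhibits growth by half.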 Activity calls are given as the source filed them. Cut-off read from the data, not from the text of the source: active = GI50 up to about 1.1 µM and inactive = higher.
Assays:
Experiment in all cases: growth of human tumour cells (NCI), 48 h
IGROV-1 = test system: IGROV-1
U-251 = test system: U-251
NCI-H522 = test system: NCI-H522
SK-MEL-5 = test system: SK-MEL-5
NCI-H460 = test system: NCI-H460
HOP-92 = test system: HOP-92
HL-60 = test system: HL-60
LOX IMVI = test system: LOX IMVI
KM-20L2 = test system: KM-20L2
MOLT-4 = test system: MOLT-4
UACC-257 = test system: UACC-257
UO-31 = test system: UO-31
CCRF-CEM = test system: CCRF-CEM
SW-620 = test system: SW-620
COLO 205 = test system: COLO 205
RXF 393 = test system: RXF 393
SF-539 = test system: SF-539
KM12 = test system: KM12
HCC 2998 = test system: HCC 2998
SK-MEL-28 = test system: SK-MEL-28
A549 = test system: A549
XF498 = test system: XF498
M19-MEL = test system: M19-MEL
SK-MEL-2 = test system: SK-MEL-2
RPMI-8226 = test system: RPMI-8226
OVCAR-5 = test system: OVCAR-5
RXF 631 = test system: RXF 631
DLD-1 = test system: DLD-1
SF-268 = test system: SF-268
EKVX = test system: EKVX
NCI-H23 = test system: NCI-H23
K562 = test system: K562
HT-29 = test system: HT-29
OVCAR-3 = test system: OVCAR-3
SNB-19 = test system: SNB-19
HCT-116 = test system: HCT-116
TK-10 = test system: TK-10
SK-OV-3 = test system: SK-OV-3
OVCAR-8 = test system: OVCAR-8
HOP-18 = test system: HOP-18
LXFL 529 = test system: LXFL 529
Malme-3M = test system: Malme-3M
ACHN = test system: ACHN
DMS-114 = test system: DMS-114
SNB-78 = test system: SNB-78
DMS-273 = test system: DMS-273
SNB-75 = test system: SNB-75
786-0 = test system: 786-0
SF-295 = test system: SF-295
A498 = test system: A498
HOP-62 = test system: HOP-62
HCT-15 = test system: HCT-15
CAKI-1 = test system: CAKI-1
UACC-62 = test system: UACC-62
SN12C = test system: SN12C
OVCAR-4 = test system: OVCAR-4
SR = test system: SR
M14 = test system: M14

For `O=P(O)(OCC(O)O)OCC(O)O`, the GI50 (IGROV-1) was > 100 µM (inactive), the GI50 (U-251) was > 100 µM (inactive) and the GI50 (NCI-H522) was > 100 µM (inactive). The GI50 (SK-MEL-5) was > 100 µM (inactive), the GI50 (NCI-H460) was > 100 µM (inactive) and the GI50 (HOP-92) was > 100 µM (inactive). The GI50 (HL-60) was > 100 µM (inactive), the GI50 (LOX IMVI) was > 100 µM (inactive) and the GI50 (KM-20L2) was > 100 µM (inactive). For the same compound, the GI50 (MOLT-4) was > 100 µM (inactive), the GI50 (UACC-257) was > 100 µM (inactive) and the GI50 (UO-31) was > 100 µM (inactive). The GI50 (CCRF-CEM) was > 100 µM (inactive), the GI50 (SW-620) was > 100 µM (inactive) and the GI50 (COLO 205) was > 100 µM (inactive). The GI50 (RXF 393) was > 100 µM (inactive), the GI50 (SF-539) was > 100 µM (inactive) and the GI50 (KM12) was > 100 µM (inactive). For the same compound, the GI50 (HCC 2998) was > 100 µM (inactive), the GI50 (SK-MEL-28) was > 100 µM (inactive) and the GI50 (A549) was > 100 µM (inactive). The GI50 (XF498) was > 100 µM (inactive), the GI50 (M19-MEL) was > 100 µM (inactive) and the GI50 (SK-MEL-2) was > 100 µM (inactive). For the same compound, the GI50 (RPMI-8226) was > 100 µM (inactive), the GI50 (OVCAR-5) was > 100 µM (inactive) and the GI50 (RXF 631) was > 100 µM (inactive). The GI50 (DLD-1) was > 100 µM (inactive), the GI50 (SF-268) was > 100 µM (inactive) and the GI50 (EKVX) was > 100 µM (inactive). For the same compound, the GI50 (NCI-H23) was > 100 µM (inactive), the GI50 (K562) was > 100 µM (inactive) and the GI50 (HT-29) was > 100 µM (inactive). The GI50 (OVCAR-3) was > 100 µM (inactive), the GI50 (SNB-19) was > 100 µM (inactive) and the GI50 (HCT-116) was > 100 µM (inactive). For the same compound, the GI50 (TK-10) was > 100 µM (inactive), the GI50 (SK-OV-3) was > 100 µM (inactive) and the GI50 (OVCAR-8) was > 100 µM (inactive). For the same compound, the GI50 (HOP-18) was 41.4 µM (inactive), the GI50 (LXFL 529) was > 100 µM (inactive) and the GI50 (Malme-3M) was > 100 µM (inactive). For the same compound, the GI50 (ACHN) was > 100 µM (inactive), the GI50 (DMS-114) was > 100 µM (inactive) and the GI50 (SNB-78) was > 100 µM (inactive). The GI50 (DMS-273) was > 100 µM (inactive), the GI50 (SNB-75) was > 100 µM (inactive) and the GI50 (786-0) was > 100 µM (inactive). For the same compound, the GI50 (SF-295) was > 100 µM (inactive), the GI50 (A498) was > 100 µM (inactive) and the GI50 (HOP-62) was > 100 µM (inactive).
In the case of `CCN(CC)CC(C)(C)C(=O)/C=C/c1ccc(C)cc1`, the GI50 (HCT-15) is reported as 3.61 µM, the GI50 (CAKI-1) is reported as 12.6 µM (inactive) and the GI50 (U-251) is reported as 15.3 µM (inactive). For the same compound, the GI50 (NCI-H522) was 3.03 µM (inactive), the GI50 (SK-MEL-5) was 14.2 µM (inactive) and the GI50 (NCI-H460) was 6.08 µM (inactive). The GI50 (HOP-92) was 1.91 µM (inactive), the GI50 (LOX IMVI) was 11 µM (inactive) and the GI50 (UACC-62) was 13.6 µM (inactive). For the same compound, the GI50 (KM-20L2) was 4.17 µM (inactive), the GI50 (MOLT-4) was 3.39 µM (inactive) and the GI50 (UO-31) was 10.5 µM (inactive). The GI50 (CCRF-CEM) was 2.82 µM (inactive), the GI50 (SW-620) was 3.55 µM (inactive) and the GI50 (RXF 393) was 9.62 µM (inactive). For the same compound, the GI50 (SF-539) was 13.3 µM (inactive), the GI50 (KM12) was 5.87 µM (inactive) and the GI50 (HCC 2998) was 10 µM (inactive). For the same compound, the GI50 (SK-MEL-28) was 13.5 µM (inactive), the GI50 (A549) was 12.9 µM (inactive) and the GI50 (XF498) was 7.96 µM (inactive). The GI50 (M19-MEL) was 9.46 µM (inactive), the GI50 (SK-MEL-2) was 12.7 µM (inactive) and the GI50 (OVCAR-5) was 14.5 µM (inactive). The GI50 (SN12C) was 7.64 µM (inactive), the GI50 (OVCAR-4) was 11.6 µM (inactive) and the GI50 (RXF 631) was 9.42 µM (inactive). The GI50 (SR) was 3.61 µM (inactive), the GI50 (DLD-1) was 11.5 µM (inactive) and the GI50 (SF-268) was 10.1 µM (inactive). The GI50 (EKVX) was 4.88 µM (inactive), the GI50 (NCI-H23) was > 10 µM (inactive) and the GI50 (K562) was 3.03 µM (inactive). The GI50 (HT-29) was 3.86 µM (inactive), the GI50 (OVCAR-3) was 9.14 µM (inactive) and the GI50 (SNB-19) was 11.8 µM (inactive). The GI50 (HCT-116) was 4.3 µM (inactive), the GI50 (TK-10) was 14.5 µM (inactive) and the GI50 (SK-OV-3) was 22.6 µM (inactive). The GI50 (OVCAR-8) was 11.8 µM (inactive), the GI50 (HOP-18) was 11.4 µM (inactive) and the GI50 (LXFL 529) was 7.31 µM (inactive). For the same compound, the GI50 (Malme-3M) was 9.46 µM (inactive), the GI50 (M14) was 12.1 µM (inactive) and the GI50 (ACHN) was 14.6 µM (inactive). The GI50 (SNB-78) was 10.7 µM (inactive), the GI50 (SNB-75) was 6.98 µM (inactive) and the GI50 (786-0) was 10.7 µM (inactive). The GI50 (SF-295) was 13.2 µM (inactive), the GI50 (A498) was 4.54 µM (inactive) and the GI50 (HOP-62) was 18.5 µM (inactive).

From ChEMBL document CHEMBL1201862, “PubChem BioAssay data set” (2004)
